Source: patent US7517874B2 (priority 2007, dated 2009)
Read-outs that look alike come from different tables or passages of the source.

Assays:
[1] = target: human CB1 receptor (hCB1) (Homo sapiens, UniProt P21554); assay: cell-based; assay type: cell-based
Outline: (§1)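 Agonism or inverse agonism was assessed as change in intracellular cAMP in CHO-K1 cells expressing human CB1 or rat CB2 (genomic DNA, pcDNA3.1).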

rat CB2 receptor (rCB2) = target: T1, rat CB2 receptor (rCB2) (Rattus norvegicus, UniProt Q9QZN9); assay: cell-based; assay type: cell-based; conditions: for +/− RCB2: agonist or inverse agonist at rCB2
T1 sequence (Q9QZN9 1-360): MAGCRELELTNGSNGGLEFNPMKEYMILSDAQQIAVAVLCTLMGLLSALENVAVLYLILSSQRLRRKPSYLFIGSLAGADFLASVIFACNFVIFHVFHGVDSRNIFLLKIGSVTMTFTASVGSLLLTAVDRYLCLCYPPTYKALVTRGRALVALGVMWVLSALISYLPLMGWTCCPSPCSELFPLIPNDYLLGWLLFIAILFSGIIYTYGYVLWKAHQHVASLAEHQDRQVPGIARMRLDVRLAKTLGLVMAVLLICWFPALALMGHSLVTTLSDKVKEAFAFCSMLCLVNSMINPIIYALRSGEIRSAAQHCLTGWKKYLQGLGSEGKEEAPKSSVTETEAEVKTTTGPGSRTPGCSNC
Outline: as §1

[2] = groups >100 nM-10 μM and >10 μM, cAMP, CHO-K1 hCB1, read-out: EC50 HCB1

human CB1 receptor (hCB1), sequence (P21554 whole entry): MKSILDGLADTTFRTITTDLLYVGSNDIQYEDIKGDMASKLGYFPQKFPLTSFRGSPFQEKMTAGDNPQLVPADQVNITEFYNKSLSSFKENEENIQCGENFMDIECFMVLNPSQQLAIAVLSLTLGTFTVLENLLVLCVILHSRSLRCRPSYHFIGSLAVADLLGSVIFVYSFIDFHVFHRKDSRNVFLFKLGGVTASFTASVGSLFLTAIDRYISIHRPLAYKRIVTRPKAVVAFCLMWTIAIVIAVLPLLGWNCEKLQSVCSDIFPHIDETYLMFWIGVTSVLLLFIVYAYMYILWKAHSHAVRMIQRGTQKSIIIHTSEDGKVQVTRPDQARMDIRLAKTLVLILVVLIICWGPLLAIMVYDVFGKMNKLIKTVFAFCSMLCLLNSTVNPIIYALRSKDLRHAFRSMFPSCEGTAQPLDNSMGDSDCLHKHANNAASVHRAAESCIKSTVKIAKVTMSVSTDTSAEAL

Structure (SMILES) | EC50 [1] [nM] | +/− RCB2 (rat CB2 receptor (rCB2)) | further results
CNC(=O)[C@@H](NC(=O)c1nc(CCC(C)(C)C)n2c1CN(C)CCC2)C(C)(C)C [Compound 488, (S)-N-(3,3-dimethyl-1-(methylamino)-1-oxobutan-2-yl)-3-(3,3-dimethylbutyl)-8-methyl-6,7,8,9-tetrahydro-5H-imidazo[1,5-a][1,4]diazepine-1-carboxamide] | > 10000 | + | 
CNC(=O)[C@@H](NC(=O)c1nc(-c2ccccc2)n2c1CN(S(C)(=O)=O)CC2)C(C)(C)C [Compound 92, (S)-N-(3,3-dimethyl-1-(methylamino)-1-oxobutan-2-yl)-7-(methylsulfonyl)-3-phenyl-5,6,7,8-tetrahydroimidazo[1,5-a]pyrazine-1-carboxamide] | > 10000 | − | 
CN1CCn2c(-c3ccc(Cl)cc3F)nc(C(=O)N3CCN(c4ncccn4)CC3)c2C1 [Compound 211, (3-(4-chloro-2-fluorophenyl)-7-methyl-5,6,7,8-tetrahydroimidazo[1,5-a]pyrazin-1-yl)(4-(pyrimidin-2-yl)piperazin-1-yl)methanone] |  |  | EC50 [1, 2]: > 10000 nM; EC50 (rat CB2 receptor (rCB2); groups >100 nM-10 μM and >10 μM, cAMP, CHO-K1 rCB2, read-out: EC50 RCB2): > 10000 nM
CNC(=O)[C@@H](NC(=O)c1nc(-c2cc(C)ccc2F)n2c1CN(C)CC2)C(C)(C)C [Compound 251, (S)-N-(3,3-dimethyl-1-(methylamino)-1-oxobutan-2-yl)-3-(2-fluoro-5-methylphenyl)-7-methyl-5,6,7,8-tetrahydroimidazo[1,5-a]pyrazine-1-carboxamide] | > 10000 | − | 
CNC(=O)[C@@H](NC(=O)c1nc(C#Cc2cccnc2)n2c1CN(C)CC2)C(C)(C)C [Compound 205, (S)-N-(3,3-dimethyl-1-(methylamino)-1-oxobutan-2-yl)-7-methyl-3-(pyridin-3-ylethynyl)-5,6,7,8-tetrahydroimidazo[1,5-a]pyrazine-1-carboxamide] | > 10000 |  | EC50 (rat CB2 receptor (rCB2)): > 10000 nM
CN1CCCn2c(-c3ccc(F)c(F)c3)nc(C(=O)N[C@@H](CC(C)(C)C)C(N)=O)c2C1 [Compound 586, (S)-N-(1-amino-4,4-dimethyl-1-oxopentan-2-yl)-3-(3,4-difluorophenyl)-8-methyl-6,7,8,9-tetrahydro-5H-imidazo[1,5-a][1,4]diazepine-1-carboxamide] |  | + | +/− HCB1 ([1]; agonist or inverse agonist at hCB1): +
CC(C)CN1CCn2c(-c3ccccc3)nc(C(=O)N[C@H](C)C3CCCCC3)c2C1 [Compound 163, (R)-N-(1-cyclohexylethyl)-7-isobutyl-3-phenyl-5,6,7,8-tetrahydroimidazo[1,5-a]pyrazine-1-carboxamide] | > 10000 | − | 
CN1CCn2c(-c3ccc(Cl)cc3F)nc(C(=O)Nc3ccc(S(=O)(=O)N4CCOCC4)cc3)c2C1 [Compound 219] |  | − | EC50 [1, 2]: > 10000 nM
Cc1noc([C@@H](NC(=O)c2nc(-c3ccccc3)n3c2CN(C(C)C)CCC3)C(C)(C)C)n1 [Compound 525, (S)-N-(2,2-dimethyl-1-(3-methyl-1,2,4-oxadiazol-5-yl)propyl)-8-isopropyl-3-phenyl-6,7,8,9-tetrahydro-5H-imidazo[1,5-a][1,4]diazepine-1-carboxamide] | > 10000 | − | 
CNC(=O)[C@@H](NC(=O)c1nc(-c2ccc(F)c(Cl)c2)n2c1CN(C)CCC2)C(C)(C)C [Compound 372, (S)-3-(3-chloro-4-fluorophenyl)-N-(3,3-dimethyl-1-(methylamino)-1-oxobutan-2-yl)-8-methyl-6,7,8,9-tetrahydro-5H-imidazo[1,5-a][1,4]diazepine-1-carboxamide] | > 10000 | + | 
CN1CCn2c(-c3ccc(Cl)cc3F)nc(C(=O)N3CCC(N4C(=O)Cc5ccccc54)CC3)c2C1 [Compound 222, 1-(1-(3-(4-chloro-2-fluorophenyl)-7-methyl-5,6,7,8-tetrahydroimidazo[1,5-a]pyrazine-1-carbonyl)piperidin-4-yl)indolin-2-one] | > 10000 |  | EC50 (rat CB2 receptor (rCB2)): > 10000 nM
CNC(=O)[C@@H](NC(=O)c1nc(-c2cc(F)ccc2F)n2c1CN(C)CCC2)C(C)(C)C [Compound 359, (S)-3-(2,5-difluorophenyl)-N-(3,3-dimethyl-1-(methylamino)-1-oxobutan-2-yl)-8-methyl-6,7,8,9-tetrahydro-5H-imidazo[1,5-a][1,4]diazepine-1-carboxamide] | > 10000 | + | 
CNC(=O)[C@@H](NC(=O)c1nc(-c2ccc(OC)cc2F)n2c1CN(C)CCC2)C(C)(C)C [Compound 358] | > 10000 | − | 
COC(=O)N1CCn2c(-c3ccccc3)nc(C(=O)Nc3ccccc3)c2C1 [Compound 181, methyl 3-phenyl-1-(phenylcarbamoyl)-5,6-dihydroimidazo[1,5-a]pyrazine-7(8H)-carboxylate] |  | − | EC50 [1, 2]: > 10000 nM
CNC(=O)[C@@H](NC(=O)c1nc(-c2cscc2C)n2c1CN(C)CCC2)C(C)(C)C [Compound 352, (S)-N-(3,3-dimethyl-1-(methylamino)-1-oxobutan-2-yl)-8-methyl-3-(4-methylthiophen-3-yl)-6,7,8,9-tetrahydro-5H-imidazo[1,5-a][1,4]diazepine-1-carboxamide] | > 10000 | + | 
C=C(c1nc(C(=O)N[C@H](C(=O)NC)C(C)(C)C)c2n1CCCN(C)C2)C(F)(F)F [Compound 453, (S)-N-(3,3-dimethyl-1-(methylamino)-1-oxobutan-2-yl)-8-methyl-3-(3,3,3-trifluoroprop-1-en-2-yl)-6,7,8,9-tetrahydro-5H-imidazo[1,5-a][1,4]diazepine-1-carboxamide] | > 10000 | + | 
CCS(=O)(=O)N1CCn2c(-c3ccccc3)nc(C(=O)NC3CCCCC3)c2C1 [Compound 118, N-cyclohexyl-7-(ethylsulfonyl)-3-phenyl-5,6,7,8-tetrahydroimidazo[1,5-a]pyrazine-1-carboxamide] | > 10000 | − | 
CNC(=O)[C@@H](NC(=O)c1nc(-c2ccc(-n3cccn3)cc2)n2c1CN(C)CCC2)C(C)(C)C [Compound 390, (S)-3-(4-(1H-pyrazol-1-yl)phenyl)-N-(3,3-dimethyl-1-(methylamino)-1-oxobutan-2-yl)-8-methyl-6,7,8,9-tetrahydro-5H-imidazo[1,5-a][1,4]diazepine-1-carboxamide] | > 10000 | − | 
O=C(NN1CCCCC1)c1nc(-c2ccccc2)n2c1CN(CCO)CC2 [Compound 156, 7-(2-hydroxyethyl)-3-phenyl-N-(piperidin-1-yl)-5,6,7,8-tetrahydroimidazo[1,5-a]pyrazine-1-carboxamide] |  | − | EC50 [1, 2]: > 10000 nM
CNC(=O)[C@@H](NC(=O)c1nc(-c2nccs2)n2c1CN(C)CC2)C(C)(C)C [Compound 297, (S)-N-(3,3-dimethyl-1-(methylamino)-1-oxobutan-2-yl)-7-methyl-3-(thiazol-2-yl)-5,6,7,8-tetrahydroimidazo[1,5-a]pyrazine-1-carboxamide] | > 10000 | + | 
CNC(=O)[C@@H](NC(=O)c1nc(-c2cccnc2)n2c1CN(C)CCC2)C(C)(C)C [Compound 348, (S)-N-(3,3-dimethyl-1-(methylamino)-1-oxobutan-2-yl)-8-methyl-3-(pyridin-3-yl)-6,7,8,9-tetrahydro-5H-imidazo[1,5-a][1,4]diazepine-1-carboxamide] | > 10000 | + | 
CNC(=O)[C@@H](NC(=O)c1nc(-c2ccccc2)n2c1CN(S(=O)(=O)c1ccccc1F)CC2)C(C)(C)C [Compound 98, (S)-N-(3,3-dimethyl-1-(methylamino)-1-oxobutan-2-yl)-7-(2-fluorophenylsulfonyl)-3-phenyl-5,6,7,8-tetrahydroimidazo[1,5-a]pyrazine-1-carboxamide] | > 10000 | − | 
Cc1noc([C@@H](NC(=O)c2nc(-c3ccccc3)n3c2CNCCC3)C(C)(C)C)n1 [Compound 519, (S)-N-(2,2-dimethyl-1-(3-methyl-1,2,4-oxadiazol-5-yl)propyl)-3-phenyl-6,7,8,9-tetrahydro-5H-imidazo[1,5-a][1,4]diazepine-1-carboxamide] | > 10000 | + | 
CCS(=O)(=O)N1CCn2c(-c3ccc(Cl)cc3)nc(C(=O)NCCC(C)C)c2C1 [Compound 116, 3-(4-chlorophenyl)-7-(ethylsulfonyl)-N-isopentyl-5,6,7,8-tetrahydroimidazo[1,5-a]pyrazine-1-carboxamide] | > 10000 | − | 
CNC(=O)[C@@H](NC(=O)c1nc(-c2ccccc2)n2c1CN(C)CC2)C(C)C [Compound 206, (S)-7-methyl-N-(3-methyl-1-(methylamino)-1-oxobutan-2-yl)-3-phenyl-5,6,7,8-tetrahydroimidazo[1,5-a]pyrazine-1-carboxamide] | > 10000 | + | 
CCN1CCn2c(-c3ccccc3)nc(C(=O)N[C@@H](C)c3ccccc3)c2C1 [Compound 147, (S)-7-ethyl-3-phenyl-N-(1-phenylethyl)-5,6,7,8-tetrahydroimidazo[1,5-a]pyrazine-1-carboxamide] | > 10000 | − | 
